Data reported in ChEMBL document CHEMBL5223105, “Nitro compounds against trypanosomatidae parasites: Heroes or villains?” (Bioorg Med Chem Lett, 2022).
≈ marks a conversion by molar mass, not a printed value.

Assays:
Trypanosoma cruzi [1] = test: Antitrypanosomal activity against Trypanosoma cruzi Brener; format: functional, organism-based
Trypanosoma cruzi [2] = test: Antitrypanosomal activity against Trypanosoma cruzi Tulahuen; format: functional, organism-based
Trypanosoma cruzi [3] = test: Antitrypanosomal activity against Trypanosoma cruzi LQ; format: functional, organism-based
[4] = Cytotoxicity against mouse J774.2 cells; format: toxicity, cell-based
[5] = Selectivity index, ratio of CC50 for […] J774.2 cells to IC50 Leishmania infantum MCAN/ES/2001/UCM-10; format: toxicity; details: J774.2 cells versus Leishmania infantum MCAN/ES/2001/UCM-10; read-out: Ratio CC50/IC50
Leishmania infantum = test: Antileishmanial activity against Leishmania infantum amastigotes MCAN/ES/2001/UCM-10 infected in J774.2 cells; format: functional, organism-based; details: MCAN/ES/2001/UCM-10, J774.2
Trypanosoma cruzi [6] = test: Antitrypanosomal activity against Trypanosoma cruzi NINOA; format: functional
Trypanosoma cruzi [7] = test: Antitrypanosomal activity against Trypanosoma cruzi INC-5; format: functional
[8] = Selectivity index, ratio of CC50 for rat L6 cells to IC50 for Leishmania donovani; format: toxicity; details: L6 cells versus Leishmania donovani, read-out: Ratio CC50/IC50
[9] = Cytotoxicity against rat L6 cells; format: toxicity, cell-based
Leishmania donovani [10] = test: Antileishmanial activity against Leishmania donovani axenic amastigotes; format: functional, organism-based
Trypanosoma cruzi [11] = test: Antitrypanosomal activity against Trypanosoma cruzi X10/7-Silvio; format: functional, organism-based
[12] = Cytotoxicity against CHO cells; format: toxicity, cell-based, Cricetulus griseus; details: chinese hamster
Leishmania donovani [13] = test: Antileishmanial activity against Leishmania donovani LCR-L 133 LRC infected in J774.2 cells; format: functional, organism-based
[14] = Selectivity index, ratio of CC50 for […] J774.2 cells to IC50 Leishmania donovani LCR-L 133 LRC; format: toxicity; details: J774.2 cells versus Leishmania donovani LCR-L 133 LRC; read-out: Ratio CC50/IC50
Trypanosoma cruzi [15] = test: Antitrypanosomal activity against Trypanosoma cruzi epimastigotes assessed as parasite growth inhibition at 50 uM; format: functional; set-up: scale not given: the % may be the effect or the level left
Trypanosoma cruzi [16] = test: Antitrypanosomal activity against Trypanosoma cruzi epimastigotes; format: functional, organism-based
[17] = Selectivity index, ratio of EC50 for Trypanosoma cruzi epimastigotes to LC50 for african green monkey Vero cells; format: toxicity; details: Vero cells versus Trypanosoma cruzi epimastigotes, read-out: Selectivity Index
[18] = Cytotoxicity against african green monkey Vero cells; format: toxicity, cell-based; details: chlorocebus sabaeus, read-out: LC50 (the source's name)
Leishmania braziliensis = test: Antileishmanial activity against Leishmania braziliensis MHOM/BR/1975/M2904 infected in J774.2 cells; format: functional, organism-based; details: MHOM/BR/1975/M2904, J774.2
[19] = Selectivity index, ratio of CC50 for […] J774.2 cells to IC50 Leishmania braziliensis MHOM/BR/1975/M2904; format: toxicity; details: read-out: Ratio CC50/IC50
Trypanosoma cruzi [20] = test: Antitrypanosomal activity against Trypanosoma cruzi Y; format: functional, organism-based

Structure (SMILES): Cn1c([N+](=O)[O-])cnc1-c1nnc(NC(=O)C(F)(F)F)s1
- IC50 (Trypanosoma cruzi [1]): 31.2 µM
- IC50 (Trypanosoma cruzi [2]): 34.2 µM

Structure (SMILES): CC(=O)Nc1nnc(-c2ncc([N+](=O)[O-])n2C)s1
- IC50 (Trypanosoma cruzi [1]): 7.44 µM
- IC50 (Trypanosoma cruzi [3]): 7.44 µM
- IC50 (Trypanosoma cruzi [2]): 7.46 µM

Structure (SMILES): CNCCOCCn1nc(OCc2ccccc2)c2cc([N+](=O)[O-])ccc21
- CC50 [4]: 197 µM
- selectivity ratio [5]: 21.6
- IC50 (Leishmania infantum): 9.1 µM

Structure (SMILES): Cn1nc(OCc2ccccc2)c2cc([N+](=O)[O-])ccc21
- CC50 [4]: 179 µM
- selectivity ratio [5]: 14.8
- IC50 (Leishmania infantum): 12.1 µM

Structure (SMILES): O=[N+]([O-])c1ccc(/C=N/NS(=O)(=O)c2ccccc2)cc1
- LC50 (Trypanosoma cruzi [6]): 26.3 µM
- LC50 (Trypanosoma cruzi [7]): 4.68 µM

Structure (SMILES): O=[N+]([O-])c1ccccc1/C=N/NS(=O)(=O)c1ccccc1
- LC50 (Trypanosoma cruzi [6]): 218 µM
- LC50 (Trypanosoma cruzi [7]): 15.2 µM

Structure (SMILES): COc1cc(CSc2nnc(-c3ncc([N+](=O)[O-])n3C)s2)cc(OC)c1OC
- selectivity ratio [8]: 240
- CC50 [9]: 19.4 µg/mL (≈ 45.9 µM)
- IC50 (Leishmania donovani [10]): 0.081 µg/mL (≈ 0.191 µM)

Structure (SMILES): O=C(Cn1cccc1[N+](=O)[O-])Nc1cccc(C(F)(F)F)c1
- EC50 (Trypanosoma cruzi [11]): 3.6 µM
- CC50 [12]: 156 µM

Structure (SMILES): O=[N+]([O-])c1ccc2c(c1)c(Oc1ccccc1)nn2CCBr
- IC50 (Leishmania donovani [13]): 1.6 µM
- CC50 [4]: 588 µM
- selectivity ratio [14]: 120

Structure (SMILES): O=[N+]([O-])c1ccc(/C=N/N=c2\[nH]nc(Cl)c3ccccc23)o1
- Activity (Trypanosoma cruzi [15]): 48%
- EC50 (Trypanosoma cruzi [16]): 6.3 µM
- selectivity ratio [17]: 8.82
- CC50 [18]: 100 µM

Structure (SMILES): CCC(=O)N(/N=C/c1ccccc1[N+](=O)[O-])S(=O)(=O)c1ccccc1
- LC50 (Trypanosoma cruzi [6]): 68.1 µM
- LC50 (Trypanosoma cruzi [7]): 0.61 µM

Structure (SMILES): COc1nn(CCN)c2ccc([N+](=O)[O-])cc12
- IC50 (Leishmania braziliensis): 8.1 µM
- CC50 [4]: 489 µM
- selectivity ratio [19]: 60
- selectivity ratio [5]: 140
- IC50 (Leishmania infantum): 3.5 µM

Structure (SMILES): O=C(Cn1cccc1[N+](=O)[O-])Nc1ccccc1
- EC50 (Trypanosoma cruzi [11]): 6 µM
- CC50 [12]: 262 µM

Structure (SMILES): Cn1cnc([N+](=O)[O-])c1-c1nnc(N)[nH]1
- IC50 (Trypanosoma cruzi [20]): 38.6 µM

Structure (SMILES): O=[N+]([O-])c1ccc(/C=N/N=c2\[nH]nc(Cl)c3ccccc23)s1
- Activity (Trypanosoma cruzi [15]): 54%
- EC50 (Trypanosoma cruzi [16]): 7.2 µM
- selectivity ratio [17]: 5.14
- CC50 [18]: 37 µM
